Measured values: publication PMC8162404, “Proteomimetic surface fragments distinguish targets by function” (Chemical Science, 2020)
Where two headings read alike, the source gives them in different places.

What was measured:
CaM [1] = target: T1, CaM (Bos taurus, UniProt P62157); assay: Pull-down assay with immobilized protein and LSM libraries; format: binding, bovine; conditions: 1:2 stoichiometry assumed, read-out: Surface mapping KD (apparent)
T1 construct: made in house; host or cells: E. coli BL21 (DE3)
Outline: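 CaM buffer was 20 mM HEPES pH 7.4, 150 mM NaCl, 5 mM CaCl2. LSM sublibrary members ([…]) incubated 30 min, RT, with equimolar His-tagged protein on Co-NTA resin. HPLC-MS measured unbound probes; bound fraction relative to resin-only background gave dissociation constants.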

RecQ-WH = target: T2, RecQ-WH (Escherichia coli, UniProt P15043); assay: as above; set-up: species or system E. coli; conditions: 1:1 binding assumed, read-out: Surface mapping KD (apparent)
T2 construct: coding for residues 408– 523 of E. coli RecQ; made in house; host or cells: E. coli BL21(DE3)
Experimental: Pull-down assays with immobilized test proteins and foldameric LSM libraries were carried out. Proteins were equilibrated with LSM probes, and equilibrium bound fractions (FB) were determined from the unbound fractions measured by HPLC-MS methods. Hits were corrected with background binding of the resin. The protocol allowed all binding events to equilibrate irrespective of affinity, specificity, and binding kinetics. This was essential to judge overall druggability and promiscuity. Importantly, the concentration of protein and the total concentration of foldameric LSMs were equimolar, which minimized competition between the probes. This experimental setup approximated independent binding of individual library members. Results were visualized as heat maps of dissociation constants (Fig. 3).
Pull-down assay and data analysis
Pull-down assay. LSM sublibraries were screened separately as previously described.(2) Experiments were performed in the following buffers: (i) 20 mM pH 7.4 HEPES, 150 mM NaCl, 5 mM CaCl2 for CaM; (ii) 50 mM pH 7.4 HEPES, 150 mM NaCl, 1 mM TCEP, 1 mM CaCl2 for S100 proteins; (iii) 20 mM pH 7.4 HEPES, 150 mM NaCl, 1 mM TCEP for Gal-1 and (iv) 20 mM pH 7.4 HEPES, 150 mM NaCl for RecQ-WH. Assays were performed in paper filter spin cups (Thermo Scientific) with sample volumes of 100 µl. Hexahistidine-tagged proteins were immobilized on previously washed Co-NTA resin (TALON, Takara Bio USA, Inc., Mountain View, CA) in 64 µM final concentration. LSM sublibrary was added, in which each of the 64 library members were used at a concentration of 1 µM. Samples were incubated at room temperature for 30 min with shaking at 100 rpm. Then, samples were centrifuged at 1000 rpm for 2 min and washed with 100 µl pull-down buffer to remove unbound compounds.
The control experiments were performed using the same compounds and the resin but without the immobilized protein. In case of competitive assays, competitor peptides were added to LSM sublibrary samples in 200 µM final concentration. In the case of Gal-1, lactose (competitor) was used in a concentration of 10 mM. Experiments were performed at least twice. Mean […]
LC-MS methods and parameters. HPLC/ESI-MS analysis was used to characterize the samples from the pull-down assay. LC-MS analysis was performed with a Thermo Scientific Dionex UltiMate 3000 HPLC system interfaced to an LTQ ion trap mass spectrometer (Thermo Electron Corp., San Jose, CA, USA). Samples were injected onto an Aeris Widepore XB-C18 (250 x 4.6 mm) analytical HPLC column using gradient elution 5-80 % solution B during 25 minutes. For pull-down samples, eluent composition was 0.1% acetic acid in distilled water (Solution A) and 0.1% acetic acid in acetonitrile (solution B). Mass spectra were acquired in full scan mode from 200 to 2000 m/z range. For overlapping peaks, selective reaction monitoring (SRM) was […]
MS data analysis. Thermo Xcalibur 2.2 software was used for peak identification and integration. The majority of the foldameric fragments could be resolved independently via HPLC-MS/MS measurements based on molecular weight, MS fragmentation pattern and retention time. Peaks of some foldamers with β3-hIle or β3-hLeu in position R2 could not be resolved, these were integrated and averaged. In the processing method, each sample component was associated to a chromatographic peak based on previously identified mass (m/z) and retention time (ref (2) and Table S7-10). Using ICIS peak detection algorithm, the general detection and integration criteria were: smoothing points: 5, baseline window: 80, area noise factor: 5, peak noise factor: 10. Using these processing setups, all raw data files were reprocessed together and analyzed. Errors in peak identification during the automatic processing were corrected manually.
Calculation of the discussed parameters
1. Bound fractions (FB.) were calculated from the HPLC-MS intensity loss of the LSM probes compared to the control where no protein was immobilized to the resin: […]

Gal-1 [2] = target: T3, Gal-1 (Homo sapiens, UniProt P09382); assay: as above; format: binding; conditions: 1:1 binding assumed, read-out: Surface mapping KD (apparent)
T3 construct: made in house; host or cells: E. coli BL21(DE3)
Outline: (§1)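 Buffers were HEPES pH 7.4 with 150 mM NaCl, plus 1 mM TCEP and 1 mM CaCl2 (50 mM HEPES) for S100A4 and S100B, 1 mM TCEP for Gal-1, and no additive for RecQ-WH. Immobilized protein at 64 µM was equilibrated 30 min with the LSM sublibrary, and unbound probes were measured by LC-MS.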

S100B [3] = target: T4, S100B (Homo sapiens, UniProt P04271); assay: as above; format: binding; conditions: 1:1 binding assumed, read-out: Surface mapping KD (apparent)
T4 construct: made in house; host or cells: Escherichia coli BL21(DE3)
T4 sequence (P04271 1-92): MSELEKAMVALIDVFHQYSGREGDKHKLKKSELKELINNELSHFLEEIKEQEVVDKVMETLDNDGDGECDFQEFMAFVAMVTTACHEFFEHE
Outline: as §1

CaM [4] = target: T1, CaM; assay: Competition pull-down with native ligand TRPV1-Ct15; format: binding, bovine; conditions: H14 library; competitor peptide 200 µM; read-out: Surface mapping KD (apparent), competition
S100B [5] = target: T4, S100B; assay: Competition pull-down with native ligand RSK1 (689–735); format: binding; conditions: H14 library; competitor peptide 200 µM; read-out: Surface mapping KD (apparent), competition
Gal-1 [6] = target: T3, Gal-1; assay: Competition pull-down with lactose; format: binding; conditions: H14 library; lactose 10 mM; read-out: Surface mapping KD (apparent), competition
Outline: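 His6-tagged proteins immobilized on Co-NTA resin at 64 µM final with 64-member LSM foldamer sublibraries (1 M each, as printed) in pH 7.4 HEPES/NaCl buffers (Ca2+/TCEP per target), 30 min RT; competitor peptides 200 µM final, lactose 10 mM for Gal-1. Bound fractions from LC-MS loss vs protein-free resin; KD assuming 1:1 binding.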

S100A4 = target: T5, S100A4 (Homo sapiens, UniProt P26447); assay: Pull-down assay with immobilized protein and LSM libraries; format: binding; conditions: H14 library; 1:1 binding assumed; read-out: Surface mapping KD (apparent)
T5 construct: made in house; host or cells: Escherichia coli BL21(DE3)
Outline: as §1

T3 sequence (P09382 whole entry): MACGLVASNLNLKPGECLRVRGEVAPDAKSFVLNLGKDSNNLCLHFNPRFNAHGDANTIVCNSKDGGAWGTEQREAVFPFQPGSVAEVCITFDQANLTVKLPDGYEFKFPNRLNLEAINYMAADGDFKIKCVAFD
T2 sequence (P15043 408-523): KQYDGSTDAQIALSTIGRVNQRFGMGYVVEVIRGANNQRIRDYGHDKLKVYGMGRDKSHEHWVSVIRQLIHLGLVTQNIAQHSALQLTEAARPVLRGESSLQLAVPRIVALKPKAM
T5 sequence (P26447 whole entry): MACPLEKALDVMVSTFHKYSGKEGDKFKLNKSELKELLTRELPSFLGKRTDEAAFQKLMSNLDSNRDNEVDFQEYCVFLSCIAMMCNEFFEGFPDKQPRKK

| Structure (SMILES) | Kd (RecQ-WH; H12 library) [µM] | Kd (S100B [3]; H12 library) [µM] | Kd (RecQ-WH; H14 library) [µM] | Kd (CaM [1]; H14 library) [µM] | Kd (S100B [3]; H14 library) [µM] | other results |
| --- | --- | --- | --- | --- | --- | --- |
| NCCCC[C@@H](CC(=O)N[C@H]1CCC[C@@H]1C(=O)N[C@H]1CCC[C@@H]1C(N)=O)NC(=O)[C@H]1CCC[C@@H]1NC(=O)[C@H]1CCC[C@@H]1NC(=O)C[C@H](Cc1ccccc1)NC(=O)[C@H]1CCC[C@@H]1NC(=O)[C@H]1CCC[C@@H]1N [H12 FK] | 337 | 37 | – | – | – | Kd (CaM [1]; H12 library): 448 µM; Kd (Gal-1 [2]; H12 library): 246 µM |
| CC(C)C[C@@H](CC(=O)N[C@H]1CCC[C@@H]1C(=O)N[C@H]1CCC[C@@H]1C(=O)N[C@@H](CCCCN)CC(=O)N[C@H]1CCC[C@@H]1C(=O)N[C@H]1CCC[C@@H]1C(N)=O)NC(=O)[C@H]1CCC[C@@H]1NC(=O)[C@H]1CCC[C@@H]1N [H12 LK] | 434 | 54 | – | – | – | – |
| CSCC[C@@H](CC(=O)N[C@H]1CCC[C@@H]1C(=O)N[C@H]1CCC[C@@H]1C(=O)N[C@@H](CCCNC(=N)N)CC(=O)N[C@H]1CCC[C@@H]1C(=O)N[C@H]1CCC[C@@H]1C(N)=O)NC(=O)[C@H]1CCC[C@@H]1NC(=O)[C@H]1CCC[C@@H]1N [H12 MR] | 435 | 59 | – | – | – | Kd (Gal-1 [2]; H12 library): 186 µM |
| NCCCC[C@@H](CC(=O)N[C@H]1CCC[C@@H]1C(=O)N[C@H]1CCC[C@@H]1C(N)=O)NC(=O)[C@H]1CCC[C@@H]1NC(=O)[C@H]1CCC[C@@H]1NC(=O)C[C@H](Cc1c[nH]c2ccccc12)NC(=O)[C@H]1CCC[C@@H]1NC(=O)[C@H]1CCC[C@@H]1N [H12 WK] | 431 | 26 | – | – | – | Kd (Gal-1 [2]; H12 library): 266 µM |
| NC(=O)[C@H]1CCC[C@@H]1NC(=O)[C@H]1CCC[C@@H]1NC(=O)C[C@H](CO)NC(=O)[C@H]1CCC[C@@H]1NC(=O)[C@H]1CCC[C@@H]1NC(=O)C[C@H](Cc1c[nH]c2ccccc12)NC(=O)[C@H]1CCC[C@@H]1NC(=O)[C@H]1CCC[C@@H]1N [H12 WS] | 420 | 54 | – | – | – | Kd (Gal-1 [2]; H12 library): 413 µM |
| CC[C@H](C)[C@@H](CC(=O)N[C@H]1CCCC[C@@H]1C(N)=O)NC(=O)[C@H]1CCCC[C@@H]1NC(=O)[C@H]1CCCC[C@@H]1NC(=O)C[C@H](CCC(=O)O)NC(=O)[C@H]1CCCC[C@@H]1N [H14 EI] | – | – | 444 | – | – | – |
| CC(C)C[C@@H](CC(=O)N[C@H]1CCCC[C@@H]1C(N)=O)NC(=O)[C@H]1CCCC[C@@H]1NC(=O)[C@H]1CCCC[C@@H]1NC(=O)C[C@H](CCC(=O)O)NC(=O)[C@H]1CCCC[C@@H]1N [H14 EL] | – | – | 444 | – | – | – |
| NC(=O)[C@H]1CCCC[C@@H]1NC(=O)C[C@H](CC(=O)O)NC(=O)[C@H]1CCCC[C@@H]1NC(=O)[C@H]1CCCC[C@@H]1NC(=O)C[C@H](Cc1ccccc1)NC(=O)[C@H]1CCCC[C@@H]1N [H14 FD] | – | – | 193 | 489 | – | – |
| NC(=O)[C@H]1CCCC[C@@H]1NC(=O)C[C@H](CCC(=O)O)NC(=O)[C@H]1CCCC[C@@H]1NC(=O)[C@H]1CCCC[C@@H]1NC(=O)C[C@H](Cc1ccccc1)NC(=O)[C@H]1CCCC[C@@H]1N [H14 FE] | – | – | 328 | 475 | – | – |
| NCCCC[C@@H](CC(=O)N[C@H]1CCCC[C@@H]1C(=O)N[C@H]1CCCC[C@@H]1C(=O)N[C@H](CC(=O)N[C@H]1CCCC[C@@H]1C(N)=O)Cc1ccc(O)cc1)NC(=O)[C@H]1CCCC[C@@H]1N [H14 KY] | – | – | 407 | 36 | 63 | – |
| NC(=O)CC[C@@H](CC(=O)N[C@H]1CCCC[C@@H]1C(=O)N[C@H]1CCCC[C@@H]1C(=O)N[C@H](CC(=O)N[C@H]1CCCC[C@@H]1C(N)=O)Cc1ccccc1)NC(=O)[C@H]1CCCC[C@@H]1N [H14 QF] | – | – | – | 39 | 83 | Kd (CaM [4]): 211 µM; Kd (S100B [5]): 425 µM; Kd (Gal-1 [6]): 319 µM; Kd (Gal-1 [2]; H14 library): 285 µM; Kd (S100A4): 443 µM |
| N=C(N)NCCC[C@@H](CC(=O)N[C@H]1CCCC[C@@H]1C(=O)N[C@H]1CCCC[C@@H]1C(=O)N[C@@H](CC(=O)O)CC(=O)N[C@H]1CCCC[C@@H]1C(N)=O)NC(=O)[C@H]1CCCC[C@@H]1N [H14 RD] | – | – | 427 | – | – | – |
| N=C(N)NCCC[C@@H](CC(=O)N[C@H]1CCCC[C@@H]1C(=O)N[C@H]1CCCC[C@@H]1C(=O)N[C@@H](CC(N)=O)CC(=O)N[C@H]1CCCC[C@@H]1C(N)=O)NC(=O)[C@H]1CCCC[C@@H]1N [H14 RN] | – | – | 439 | 185 | 212 | – |
| N=C(N)NCCC[C@@H](CC(=O)N[C@H]1CCCC[C@@H]1C(=O)N[C@H]1CCCC[C@@H]1C(=O)N[C@@H](CO)CC(=O)N[C@H]1CCCC[C@@H]1C(N)=O)NC(=O)[C@H]1CCCC[C@@H]1N [H14 RS] | – | – | 403 | 155 | 413 | – |
| NC(=O)[C@H]1CCCC[C@@H]1NC(=O)C[C@H](Cc1ccc(O)cc1)NC(=O)[C@H]1CCCC[C@@H]1NC(=O)[C@H]1CCCC[C@@H]1NC(=O)C[C@H](CO)NC(=O)[C@H]1CCCC[C@@H]1N [H14 SY] | – | – | – | 90 | 225 | Kd (CaM [4]): 244 µM; Kd (S100B [5]): 109 µM; Kd (Gal-1 [6]): 348 µM; Kd (Gal-1 [2]; H14 library): 318 µM |
